Measured values from paper PMC10257758 (Drug development research, 2023).
“And” between values parts separate entries of the source, which are not always exact repeats. Equal entries are not always repeated.

Legend:
[1] = target: CA I (Homo sapiens, UniProt P00915); assay: CA-catalysed CO2 hydration stopped-flow inhibition assay, CA I; format: biochemical; settings: mean from 3 assays
[2] = target: CA XII (Homo sapiens, UniProt O43570); assay: CA-catalysed CO2 hydration stopped-flow inhibition assay, CA XII; format: biochemical; settings: mean from 3 assays
[3] = target: CA II (Homo sapiens, UniProt P00918); assay: CA-catalysed CO2 hydration stopped-flow inhibition assay, CA II; format: biochemical; settings: mean from 3 assays
[4] = target: CA IX (Homo sapiens, UniProt Q16790); assay: CA-catalysed CO2 hydration stopped-flow inhibition assay, CA IX; format: biochemical; settings: mean from 3 assays
[5] = MTS cytotoxicity / cell viability assay; format: cell-based, human; settings: human, HEK293 cells
[6] = system: HEK293 cells; assay: MTS cytotoxicity / cell viability assay; format: cell-based, human; settings: low tumorigenic cells (HEK293)

CA I, sequence (P00915 whole entry): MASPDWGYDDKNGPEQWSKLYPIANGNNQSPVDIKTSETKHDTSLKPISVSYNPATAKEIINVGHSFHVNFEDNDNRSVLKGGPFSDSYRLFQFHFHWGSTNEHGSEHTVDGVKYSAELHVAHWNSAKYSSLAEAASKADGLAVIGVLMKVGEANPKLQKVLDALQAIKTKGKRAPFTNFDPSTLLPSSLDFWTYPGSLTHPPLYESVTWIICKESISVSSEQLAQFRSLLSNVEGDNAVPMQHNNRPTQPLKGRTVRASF
CA XII, sequence (O43570 25-354): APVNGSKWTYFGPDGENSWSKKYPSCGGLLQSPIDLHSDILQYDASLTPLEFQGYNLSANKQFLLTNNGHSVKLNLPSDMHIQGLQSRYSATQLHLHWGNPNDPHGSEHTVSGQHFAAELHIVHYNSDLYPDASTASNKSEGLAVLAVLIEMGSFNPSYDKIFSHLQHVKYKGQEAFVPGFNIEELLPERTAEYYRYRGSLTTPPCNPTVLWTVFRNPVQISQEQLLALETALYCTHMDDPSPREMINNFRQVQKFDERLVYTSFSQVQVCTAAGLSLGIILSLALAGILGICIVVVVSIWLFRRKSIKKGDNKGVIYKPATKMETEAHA

SMILES | Ki ([1]; cells/sentences stated in nM) [nM] | Ki ([2]; cells/sentences stated in nM) | Ki ([1]; μM unless stated) [nM] | Ki ([3]; μM unless stated) [µM] | Ki ([4]; μM unless stated) [µM] | Ki ([2]; μM unless stated) [nM] | Ki ([3]; cells/sentences stated in nM) | Ki ([4]; cells/sentences stated in nM) [µM] | viability at 72 h, 100 µM [5] [%] | general cytotoxic effect [6]
CCOC(=O)c1cc2ccc(OCC(=O)Nc3ccc(S(N)(=O)=O)cc3)cc2oc1=O [5a, Ethyl 2-oxo-7-(2-oxo-2-((4-sulfamoylphenyl)amino)ethoxy)-2H-chromene-3-carboxylate] | 738 | 20.3 nM |  |  |  |  |  |  |  | 
CCOC(=O)c1cc2ccc(OCC(=O)Nc3ccc(S(=O)(=O)Nc4ncnc(OC)c4OC)cc3)cc2oc1=O [5b, Ethyl 7-(2-((4-(N-(5,6-dimethoxypyrimidin-4-yl)sulfamoyl)phenyl)amino)-2-oxoethoxy)-2-oxo-2H-chromene-3-carboxylate] |  |  | > 100000 | > 100 | > 100 | > 100000 |  |  |  | 
CCOC(=O)c1cc2ccc(OCC(=O)Nc3ccc(S(=O)(=O)NC(C)=O)cc3)cc2oc1=O [5c, Ethyl 7-(2-((4-(N-acetylsulfamoyl)phenyl)amino)-2-oxoethoxy)-2-oxo-2H-chromene-3-carboxylate] |  |  | > 100000 | > 100 | 6.1 | 1900 |  |  |  | 
NS(=O)(=O)c1ccc(NC(=O)c2cc3cc(Cl)ccc3oc2=O)cc1 [9b, 6-Chloro-2-oxo-N-(4-sulfamoylphenyl)-2H-chromene-3-carboxamide] | 818 | 28.4 nM |  |  |  |  | 0.064 µM and 0.0635 µM | 0.0523 |  | 
NS(=O)(=O)c1ccc(NC(=O)c2cc3cc(Br)ccc3oc2=O)cc1 [9c, 6-Bromo-2-oxo-N-(4-sulfamoylphenyl)-2H-chromene-3-carboxamide] | 1420 | 16.2 nM |  |  |  |  | 0.0854 µM | 0.0676 |  | 
NS(=O)(=O)c1ccc(NC(=O)c2cc3cc(Cl)cc(Cl)c3oc2=O)cc1 [9d, 6,8-Dichloro-2-oxo-N-(4-sulfamoylphenyl)-2H-chromene-3-carboxamide] | 2320 | 46.3 nM |  |  |  |  | 0.238 µM | 0.105 |  | 
COc1ccc2cc(C(=O)Nc3ccc(S(N)(=O)=O)cc3)c(=O)oc2c1 [9h, 7-Methoxy-2-oxo-N-(4-sulfamoylphenyl)-2H-chromene-3-carboxamide] |  |  |  |  |  |  |  | 0.0318 |  | 
COc1ccc(NS(=O)(=O)c2ccc(NC(=O)c3cc4cc(Cl)ccc4oc3=O)cc2)nn1 [11b, 6-Chloro-N-(4-(N-(6-methoxypyridazin-3-yl)sulfamoyl)phenyl)-2-oxo-2H-chromene-3-carboxamide] |  |  | > 100000 | > 100 | > 100 | > 100000 |  |  |  | 
COc1ccc(NS(=O)(=O)c2ccc(NC(=O)c3cc4cc(Cl)cc(Cl)c4oc3=O)cc2)nn1 [11d, 6,8-Dichloro-N-(4-(N-(6-methoxypyridazin-3-yl)sulfamoyl)phenyl)-2-oxo-2H-chromene-3-carboxamide] |  |  | > 100000 | > 100 | > 100 | > 100000 |  |  |  | 
Cc1nnc(NS(=O)(=O)c2ccc(NC(=O)c3cc4cc(Br)ccc4oc3=O)cc2)s1 [13c, 6-Bromo-N-(4-(N-(5-methyl-1,3,4-thiadiazol-2-yl)sulfamoyl)phenyl)-2-oxo-2H-chromene-3-carboxamide] |  |  | > 100000 | > 100 | > 100 | > 100000 |  |  |  | 
COc1cc(NS(=O)(=O)c2ccc(NC(=O)c3cc4cc(Br)ccc4oc3=O)cc2)nc(OC)n1 [14c, 6-Bromo-N-(4-(N-(2,6-dimethoxypyrimidin-4-yl)sulfamoyl)phenyl) −2-oxo-2H-chromene −3-carboxamide] |  |  | > 100000 | > 100 | > 100 | > 100000 |  |  |  | 
COc1cc(NS(=O)(=O)c2ccc(NC(=O)c3cc4ccccc4oc3=O)cc2)nc(OC)n1 [14e, N-(4-(N-(2,6-dimethoxypyrimidin-4-yl)sulfamoyl)phenyl)-2-oxo-2H-chromene-3-carboxamide] |  |  | > 100000 | > 100 | > 100 | > 100000 |  |  |  | 
CC(=O)NS(=O)(=O)c1ccc(NC(=O)c2cc3cc(Br)ccc3oc2=O)cc1 [15c, N-(4-(N-acetylsulfamoyl)phenyl)-6-bromo-2-oxo-2H-chromene-3-carboxamide] |  |  | > 100000 | 46.8 | 0.91 | 10600 |  |  |  | 
CC(=O)NS(=O)(=O)c1ccc(NC(=O)c2cc3ccccc3oc2=O)cc1 [15e, N-(4-(N-acetylsulfamoyl)phenyl)-2-oxo-2H-chromene-3-carboxamide] |  |  | > 100000 | 10.3 |  | 6300 |  |  |  | 
NS(=O)(=O)c1cccc(NC(=O)c2cc3cc(Br)ccc3oc2=O)c1 [16c, 6-Bromo-2-oxo-N-(3-sulfamoylphenyl)-2H-chromene-3-carboxamide] | 1960 | 54.2 nM |  |  |  |  | 0.0763 µM | 0.0144 |  | 
NS(=O)(=O)c1cccc(NC(=O)c2cc3ccccc3oc2=O)c1 [16e, 2-Oxo-N-(3-sulfamoylphenyl)-2H-chromene-3-carboxamide] | 193 | 69.8 nM |  |  |  |  | 0.0535 µM | 0.0189 |  | 
COc1ccc2oc(=O)c(C(=O)Nc3cccc(S(N)(=O)=O)c3)cc2c1 [16f, 6-Methoxy-2-oxo-N-(3-sulfamoylphenyl)-2H-chromene-3-carboxamide] | 774 | 52 nM and 52.1 nM |  |  |  |  | 0.212 µM | 0.005 |  | 
NS(=O)(=O)c1cccc(NC(=O)c2cc3cc(F)ccc3oc2=O)c1 [16i, 6-Fluoro-2-oxo-N-(3-sulfamoylphenyl)-2H-chromene-3-carboxamide] | 225 | 49.5 nM |  |  |  |  | 0.0752 µM | 0.0152 |  | 
COc1ccc2oc(=O)c(C(=O)Nc3cc(C(F)(F)F)c(S(N)(=O)=O)cc3S(N)(=O)=O)cc2c1 [18f, N-(2,4-disulfamoyl-5-(trifluoromethyl)phenyl)-6-methoxy-2-oxo-2H-chromene-3-carboxamide] |  |  |  |  |  |  |  |  | 97 | no general cytotoxic effect
CCN(CC)c1ccc2cc(C(=O)OCC(=O)Nc3ccc(S(N)(=O)=O)cc3)c(=O)oc2c1 [compound 22, 2-Oxo-2-((4-sulfamoylphenyl)amino)ethyl-7-(diethylamino)-2-oxo-2H-chromene-3-carboxylate] | 74.4 | 65.7 nM |  |  |  |  | 0.023 µM | 0.0196 |  | 
